Consider one compound from article PMC12150210 (RSC Advances, 2025).

The assay addresses hCG (whole human chorionic gonadotropin) (Homo sapiens, UniProt P0DN86). Kind of assay: microscale thermophoresis. Format: binding.

The compound `CO[C@@]1(NC(=O)C2SC(=C(C(N)=O)C(=O)O)S2)C(=O)N2C(C(=O)O)=C(CSc3nnnn3C)CS[C@@H]21` (stereo partly drawn) [Cefotetan, (6R,7S)-7-[[4-(2-amino-1-carboxy-2-oxoethylidene)-1,3-dithietane-2-carbonyl]amino]-7-methoxy-3-[(1-methyltetrazol-5-yl)sulfanylmethyl]-8-oxo-5-thia-1-azabicyclo[4.2.0]oct-2-ene-2-carboxylic acid] came in with a Kd of 4.6 ± 3 µM.
